# Source: US20090163567A1 (priority 2005, published 2009)
# Read-outs that look alike come from different tables or passages of the source.
# How the values were obtained:
# [1] = system: tomato late blight; assay type: in vivo, Tomato (cultivar: Ponderosa); details: Test Example 4 (curative)
# [2] = system: tomato late blight; assay type: in vivo, Tomato (cultivar: Ponderosa)
# [3] = system: cucumber downy mildew; experiment: Test on preventive effect against cucumber downy mildew; assay type: in vivo, Cucumber (cultivar: Sagamihanshirofushinari)
# Protocol: Cucumber (cultivar: Sagamihanshirofushinari) was cultivated in a polyethylene pot having a diameter of 7.5 cm, and when the cucumber reached two-leaf stage, a drug solution having the respective test compounds adjusted to the predetermined concentrations (applied amount: 1000 L/ha), was applied by means of a spray gun. After the applied solution dried, the cucumber was sprayed and inoculated with a suspension of spores of cucumber downy mildew and kept in a humidified chamber at 20° C. for 20 hours. Thereafter, the cucumber was kept in a thermostatic chamber at 20° C. for 7 days, whereupon the lesion area rate was obtained. Here, the lesion area rate is a value obtained in such a manner that lesion area of Downy Mildew of specimen leaves was obtained by visual examination, and its ratio to the total area of specimen leaves is shown by percent.
# (§1) The lesion area ratio in non-treated area was obtained in the same manner as in the treated area except that instead of the drug solution, water was applied by means of a spray gun.
# (§2) Further, a theoretical value can be calculated by the Colby formula. If the experimental value is lower than the theoretical value by the Colby formula, the fungicidal composition for agricultural or horticultural use of the present invention has a synergistic effect for controlling the plant disease. In this context, the theoretical values by the Colby formula are also shown in brackets ( ) in Tables 1 and 2.
# [4] = system: cucumber downy mildew; experiment: Test on curative effect against cucumber downy mildew; assay type: in vivo, Cucumber (cultivar: Sagamihanshirofushinari)
# Protocol: Cucumber (cultivar: Sagamihanshirofushinari) was cultivated in a polyethylene pot having a diameter of 7.5 cm, and when it reached two-leaf stage, the cucumber was sprayed and inoculated with a suspension of spores of cucumber downy mildew and kept in a humidified chamber at 20° C. for 20 hours. Then, after drying the crop plant, a drug solution having the respective test compounds adjusted to the predetermined concentrations, was applied in a sufficient amount (20 ml) by means of a spray gun. After the sprayed solution dried, it was kept in a thermostatic chamber at 20° C. for 5 days, whereupon the lesion area ratio was obtained. The results are shown in is Tables 3 and 4.
# as §1
# as §2, with “3” for “1”, “4.” for “2.”
# [5] = system: Grape Downy Mildew; experiment: Test on preventive effect against grape downy mildew (leaf disks test); assay type: in vivo, grapes (cultivar: Neomuscat)
# Source text: Leaf disks having a diameter of 1 cm were punched out with leaf puncher from leaves of grapes (cultivar: Neomuscat), and a drug solution having the respective test compounds adjusted to the predetermined concentrations (applied amount: 500 L/ha), was applied to the leaf disks by means of an indoor spray equipment. After the applied solution dried, the leaf disks were transferred to petri dishes having a diameter of 3 cm, a suspension of zoosporangium of Grape Downy Mildew was dropwise applied, and the leaf disks were inoculated. They were kept in a chamber at 20° C. for 10 days. Then, the disease severity index of each disk was investigated by the following standards, and the disease severity was obtained by the following formula.
# The disease severity in non-treated area was obtained in the same manner as in the treated area except that instead of the drug solution, water was applied by means of an auto sprayer.
# Disease outbreak index 0: No sporogenesis is observed.
# Disease severity index 1: The sporogenesis area is less than 10% of the drop area.
# Disease severity index 2: The sporogenesis area is from 10% to less than 50% of the drop area.
# Disease severity index 3: The sporogenesis area is from 50% to less than 90% of the drop area.
# Disease severity index 4: The sporogenesis area is at least 90% of the drop area.
# Disease severity=[(0×A+1×B+2×C+3×D+4×E)/{4×(A+B+C+D+E)}]×100
# where A is the number of disks with disease severity index 0, B is the number of disks with disease severity index 1, C is the number of disks with disease severity index 2, D is the number of disks with disease severity index 3, and E is the number of disks with disease severity index 4.
# as §2, with “9” for “1”, “10.” for “2.”
smiles,measurement,setting,value
COC(=O)[C@@H](C)N(C(=O)Cc1ccccc1)c1c(C)cccc1C [Benalaxyl-M],Disease severity in the test on preventive effect against tomato late blight,[1]; Benalaxyl-M 50 ppm alone,94
same,Disease severity in the test on preventive effect against tomato late blight,[1]; Benalaxyl-M 200 ppm alone,75
same,Disease severity in the test on preventive effect against tomato late blight,[2]; Benalaxyl-M 25 ppm alone,100
same,Disease severity in the test on preventive effect against tomato late blight,[2]; Benalaxyl-M 100 ppm alone,100
same,Lesion area ratio in the test on preventive effect against cucumber downy mildew,[3]; Benalaxyl-M 25 ppm alone,100%
same,Lesion area ratio in the test on curative effect against cucumber downy mildew,[4]; Benalaxyl-M 400 ppm alone,100%
same,Disease severity in the test on preventive effect against grape downy mildew,[5]; Benalaxyl-M 0.024 ppm alone,100
"Cc1ccc(-c2c(Cl)nc(C#N)n2S(=O)(=O)N(C)C)cc1 [Compound No. 1, 4-chloro-2-cyano-1-dimethylsulfamoyl-5-(4-methylphenyl) imidazole]",Disease severity in the test on preventive effect against tomato late blight,[1]; Compound No. 1 50 ppm alone,100
same,Disease severity in the test on preventive effect against tomato late blight,[1]; Compound No. 1 400 ppm alone,94
same,Disease severity in the test on preventive effect against tomato late blight,[2]; Compound No. 1 1.6 ppm alone,19
same,Disease severity in the test on preventive effect against tomato late blight,[2]; Compound No. 1 6.3 ppm alone,12
same,Lesion area ratio in the test on preventive effect against cucumber downy mildew,[3]; Compound No. 1 0.2 ppm alone,10%
same,Lesion area ratio in the test on curative effect against cucumber downy mildew,[4]; Compound No. 1 50 ppm alone,100%
same,Lesion area ratio in the test on curative effect against cucumber downy mildew,[4]; Compound No. 1 200 ppm alone,100%
same,Disease severity in the test on preventive effect against grape downy mildew,[5]; Compound No. 1 0.098 ppm alone,100
same,Disease severity in the test on preventive effect against grape downy mildew,[5]; Compound No. 1 0.39 ppm alone,40
COc1ccc(/C(=C\C(=O)N2CCOCC2)c2ccc(F)cc2)cc1OC [Flumorph],Disease severity in the test on preventive effect against tomato late blight,[1]; Flumorph 50 ppm alone,100
same,Disease severity in the test on preventive effect against tomato late blight,[1]; Flumorph 200 ppm alone,37
same,Disease severity in the test on preventive effect against tomato late blight,[2]; Flumorph 6.3 ppm alone,100
same,Disease severity in the test on preventive effect against tomato late blight,[2]; Flumorph 12.5 ppm alone,100
same,Lesion area ratio in the test on preventive effect against cucumber downy mildew,[3]; Flumorph 12.5 ppm alone,20%
same,Lesion area ratio in the test on curative effect against cucumber downy mildew,[4]; Flumorph 400 ppm alone,90%
same,Disease severity in the test on preventive effect against grape downy mildew,[5]; Flumorph 1.6 ppm alone,40
